# Measured values reported in the RepoRT retention time repository (doi:10.1021/es4044374).
# Experiment: RP, Waters XBridge C18, 50 × 2.1 mm, 3.5 µm, 30 °C, 0.2 mL/min, estimated dead time 0.55 min; A: water + 0.1% formic acid, pH 3; B: methanol + 0.1% formic acid, pH 3; gradient (min/%B) 0/10 4/50 17/95 25/95 25.1/10 30/10
# Details: stereoisomer not certain
row,SMILES,LC retention time
1,CN1C2CCC1C(C(=O)O)C(OC(=O)c1ccccc1)C2 (centres undefined) [Benzoylecgonine],4.6 min
2,CC(O)(CS(=O)(=O)c1ccc(F)cc1)C(=O)Nc1ccc(C#N)c(C(F)(F)F)c1 (centres undefined) [Bicalutamide],9.9 min
3,O=P(O)(OCCC(F)(F)C(F)(F)C(F)(F)C(F)(F)C(F)(F)C(F)(F)C(F)(F)C(F)(F)F)OCCC(F)(F)C(F)(F)C(F)(F)C(F)(F)C(F)(F)C(F)(F)C(F)(F)C(F)(F)F [Bisperfluorodecyl phosphate],20.4 min
4,O=P(O)(OCCC(F)(F)C(F)(F)C(F)(F)C(F)(F)C(F)(F)C(F)(F)F)OCCC(F)(F)C(F)(F)C(F)(F)C(F)(F)C(F)(F)C(F)(F)F [Bisperfluorooctyl phosphate],18.1 min
5,O=C(Nc1ccccc1-c1ccc(Cl)cc1)c1cccnc1Cl [Boscalid],10.5 min
6,CCC(C)n1c(=O)[nH]c(C)c(Br)c1=O (centres undefined) [Bromacil],7 min
7,N#Cc1cc(Br)c(O)c(Br)c1 [Bromoxynil],8.3 min
8,CC(NC(C)(C)C)C(=O)c1cccc(Cl)c1 (centres undefined) [Bupropion],5.8 min
9,Nc1cnn(-c2ccccc2)c(=O)c1Cl [Chloridazon],5.2 min
10,Nc1cn[nH]c(=O)c1Cl [Chloridazone-desphenyl],1.3 min
11,COP(=S)(OC)Oc1nc(Cl)c(Cl)cc1Cl [Chlorpyrifos-methyl],14 min
12,CCOP(=S)(OCC)Oc1nc(Cl)c(Cl)cc1Cl [Chlorpyrifos],16 min
13,Cc1ccc(NC(=O)N(C)C)cc1Cl [Chlortoluron],8.2 min
14,CC1(C)CC1C(=O)NC(=CCCCCSCC(N)C(=O)O)C(=O)O (centres undefined) [Cilastatin],5.2 min
15,CCC1OC(=O)C(C)C(OC2CC(C)(OC)C(O)C(C)O2)C(C)C(OC2OC(C)CC(N(C)C)C2O)C(C)(OC)CC(C)C(=O)C(C)C(O)C1(C)O (centres undefined) [Clarithromycin],9.7 min
16,CCCC1CC(C(=O)NC(C(C)Cl)C2OC(SC)C(O)C(O)C2O)N(C)C1 (centres undefined) [Clindamycin],6.7 min
17,CC1(C)CON(Cc2ccccc2Cl)C1=O [Clomazone],9.4 min
18,CNC(=N[N+](=O)[O-])NCc1cnc(Cl)s1 [Clothianidin],4.9 min
19,COC(=O)C1C(OC(=O)c2ccccc2)CC2CCC1N2C (centres undefined) [Cocaine],5 min
20,COc1ccc2c3c1OC1C(O)C=CC4C(C2)N(C)CCC341 (centres undefined) [Codeine],2.8 min
21,CCNc1nc(Cl)nc(NC(C)(C)C#N)n1 [Cyanazine],6.6 min
22,O=S(=O)(O)NC1CCCCC1 [Cyclamate],3.6 min
23,O=P1(N(CCCl)CCCl)NCCCO1 (centres undefined) [Cyclophosphamide],6.3 min
24,CCNC(=O)NC(=O)C(C#N)=NOC [Cymoxanil],5.6 min
25,CC(C1CC1)C(O)(Cn1cncn1)c1ccc(Cl)cc1 (centres undefined) [Cyproconazole],11.5 min
26,Cc1cc(C2CC2)nc(Nc2ccccc2)n1 [Cyprodinil],9.4 min

row,SMILES,LC retention time
1,CCCCCCCCCC[N+](C)(C)[O-] [DDAO],10.4 min
2,CCOC(=O)Nc1cccc(OC(=O)Nc2ccccc2)c1 [Desmedipham],9.2 min
3,COc1ccc2c(c1)C13CCCCC1C(C2)N(C)CC3 (centres undefined) [Dextromethorphan],6.6 min
4,CN1C(=O)CN=C(c2ccccc2)c2cc(Cl)ccc21 [Diazepam],10.1 min
5,CCOP(=S)(OCC)Oc1cc(C)nc(C(C)C)n1 [Diazinon],13 min
6,CCOP(=O)(OCC)Oc1cc(C)nc(C(C)C)n1 [Diazoxon],9.5 min
7,N#Cc1c(Cl)cccc1Cl [Dichlobenil],8.5 min
8,CC(Oc1ccc(Cl)cc1Cl)C(=O)O (centres undefined) [Dichlorprop],10.7 min
9,CC1COC(Cn2cncn2)(c2ccc(Oc3ccc(Cl)cc3)cc2Cl)O1 (centres undefined) [Difenoconazole],14.1 min
10,O=C(Nc1ccc(F)cc1F)c1cccnc1Oc1cccc(C(F)(F)F)c1 [Diflufenican],14.4 min
11,COCCOCCOC [Diglyme],3.2 min
12,COCCN(C(=O)CCl)c1c(C)cccc1C [Dimethachlor],9.1 min
13,COCC(C)N(C(=O)CCl)c1c(C)csc1C (centres undefined) [Dimethenamid-P],10 min
14,CNC(=O)CSP(=S)(OC)OC [Dimethoate],5.2 min
15,COc1ccc(C(=CC(=O)N2CCOCC2)c2ccc(Cl)cc2)cc1OC [Dimethomorph],10.8 min
16,CCC(C)c1cc([N+](=O)[O-])cc([N+](=O)[O-])c1O (centres undefined) [Dinoseb],13 min
17,CC=C1N(C)C(C)CC1(c1ccccc1)c1ccccc1 (centres undefined) [EDDP],6.5 min
18,CNC(C)C(O)c1ccccc1 (centres undefined) [Ephedrine],2.9 min
19,Fc1ccc(C2(Cn3cncn3)OC2c2ccccc2Cl)cc1 (centres undefined) [Epoxiconazole],11.7 min
20,CCC1OC(=O)C(C)C(OC2CC(C)(OC)C(O)C(C)O2)C(C)C(OC2OC(C)CC(N(C)C)C2O)C(C)(O)CC(C)C(=O)C(C)C(O)C1(C)O (centres undefined) [Erythromycin],8.5 min
21,CCC(CO)NCCNC(CC)CO (centres undefined) [Ethambutol],9.6 min
22,CCOC1Oc2ccc(OS(C)(=O)=O)cc2C1(C)C (centres undefined) [Ethofumesate],10 min
23,C=C1CC2C(CCC3(C)C(=O)CCC23)C2(C)C=CC(=O)C=C12 (centres undefined) [Exemestane],10.1 min
24,CC(Cc1ccc(C(C)(C)C)cc1)CN1CCCCC1 (centres undefined) [Fenpropidin],9.5 min
25,CC(Cc1ccc(C(C)(C)C)cc1)CN1CC(C)OC(C)C1 (centres undefined) [Fenpropimorph],9.4 min

# Further lines, results first:
row,LC retention time,SMILES
1,12.1 min,COc1ccc(C(=O)c2ccccc2)c(O)c1 [Benzophenone-3]
2,6.6 min,c1ccc2scnc2c1 [Benzothiazole]
3,10.6 min,CC(C)(Oc1ccc(CCNC(=O)c2ccc(Cl)cc2)cc1)C(=O)O [Bezafibrate]
4,14 min,CC(C)(c1ccc(O)cc1)c1ccc(O)cc1 [Bisphenol A]
5,4 min,Cn1c(=O)c2c(ncn2C)n(C)c1=O [Caffeine]
6,9.3 min,CCOc1nc2cccc(C(=O)O)c2n1Cc1ccc(-c2ccccc2-c2nn[nH]n2)cc1 [Candesartan]
7,6.3 min,"NC(=O)N1c2ccccc2C2OC2c2ccccc21 (centres undefined) [Carbamazepine-10,11-epoxide]"
8,7.8 min,NC(=O)N1c2ccccc2C=Cc2ccccc21 [Carbamazepine]
9,6.6 min,CCNC(=O)C(C)OC(=O)Nc1ccccc1 (centres undefined) [Carbetamide]
10,9.3 min,O=C(O)COCCN1CCN(C(c2ccccc2)c2ccc(Cl)cc2)CC1 (centres undefined) [Cetirizine]
11,2.2 min,Cn1ncc(N)c(Cl)c1=O [Chloridazone-methyl-desphenyl]
12,4.5 min,O=C(O)c1cn(C2CC2)c2cc(N3CCNCC3)c(F)cc2c1=O [Ciprofloxacin]
13,6.6 min,CN(C)CCCC1(c2ccc(F)cc2)OCc2cc(C#N)ccc21 (centres undefined) [Citalopram]
14,8.1 min,CC(C)(C)C(=O)C(Oc1ccc(Cl)cc1)n1ccnc1 (centres undefined) [Climbazol]
15,10 min,CC(C)(Oc1ccc(Cl)cc1)C(=O)O [Clofibric acid]
16,5.7 min,O=C(O)C(c1ccccc1Cl)N1CCc2sccc2C1 (centres undefined) [Clopidogrel carboxylic acid]
17,8.8 min,Clc1ccccc1C(c1ccccc1)(c1ccccc1)n1ccnc1 [Clotrimazole]
18,6.4 min,CN1CCN(C2=Nc3cc(Cl)ccc3Nc3ccccc32)CC1 [Clozapine]
19,6.3 min,CNCCCC(C#N)(c1ccc(OC)c(OC)c1)C(C)C (centres undefined) [D617]

row,LC retention time,SMILES
1,8.6 min,CCN(CC)C(=O)c1cccc(C)c1 [DEET]
2,9.5 min,CC1CC2C3CCC4=CC(=O)C=CC4(C)C3(F)C(O)CC2(C)C1(O)C(=O)CO (centres undefined) [Dexamethasone]
3,1.6 min,CC(=O)Nc1c(I)c(NC(C)=O)c(I)c(C(=O)O)c1I [Diatrizoate]
4,7 min,COc1c(Cl)ccc(Cl)c1C(=O)O [Dicamba]
5,12.8 min,O=C(O)Cc1ccccc1Nc1c(Cl)cccc1Cl [Diclofenac]
6,5.9 min,COCCN(C(=O)CS(=O)(=O)O)c1c(C)cccc1C [Dimethachlor ESA]
7,6.6 min,COCCN(C(=O)C(=O)O)c1c(C)cccc1C [Dimethachlor OXA]
8,7.5 min,COCC(C)N(C(=O)C(=O)O)c1c(C)csc1C (centres undefined) [Dimethenamid OXA]
9,6.7 min,COCC(C)N(C(=O)CS(=O)(=O)O)c1c(C)csc1C (centres undefined) [Dimethenamide ESA]
10,5.2 min,CC(=O)N(C)N(C(=O)C(=O)N(C)C)c1ccccc1 [Dioxoaminopyrine]
11,8.3 min,NC(=O)Nc1ccc(Cl)c(Cl)c1 [Diuron-desdimethyl]
12,8.5 min,CNC(=O)Nc1ccc(Cl)c(Cl)c1 [Diuron-desmethyl]
13,8.9 min,CN(C)C(=O)Nc1ccc(Cl)c(Cl)c1 [Diuron]
14,11.5 min,CCCCc1oc2ccc(NS(C)(=O)=O)cc2c1C(=O)c1ccc(OCCCN(CCCC)CCCC)cc1 [Dronedarone]
15,6.3 min,CCCCc1ncc(C=C(Cc2cccs2)C(=O)O)n1Cc1ccc(C(=O)O)cc1 [Eprosartan]
16,6 min,CC1(C)C(=O)Oc2ccc(OS(C)(=O)=O)cc21 [Ethofumesate-2-keto]
17,15.7 min,CC(C)OC(=O)C(C)(C)Oc1ccc(C(=O)c2ccc(Cl)cc2)cc1 [Fenofibrate]
18,12.6 min,CC(C)(Oc1ccc(C(=O)c2ccc(Cl)cc2)cc1)C(=O)O [Fenofibric acid]
19,12.6 min,CCOC(=O)NCCOc1ccc(Oc2ccccc2)cc1 [Fenoxycarb]
